The test system of one assay is COX-1. The assay is described as follows: COX-1 activity in vitro (PGE2 formed, ELISA). In kind it is biochemical, human or murine. Conditions: recombinant enzyme, arachidonic acid 10 μM, pH 8.0; read-out: COX-1 ID50. As to the method:
(§1) Evaluation of COX I and COX II activity in vitro
(§2) The COX-2 inhibition activity of the compounds of this invention illustrated in the Examples was determined by the following methods. a. Preparation of recombinant COX baculoviruses
(§3) Recombinant COX-1 and COX-2 were prepared as described by Gierse et al, [J. Biochem., 305, 479-84 (1995)]. A 2.0 kb fragment containing the coding region of either human or murine COX-1 or human or murine COX-2 was cloned into a BamH1 site of the baculovirus transfer vector pVL1393 (Invitrogen) to generate the baculovirus transfer vectors for COX-1 and COX-2 in a manner similar to the method of D. R. O'Reilly et al (Baculovirus Expression Vectors: A Laboratory Manual (1992)). Recombinant baculoviruses were isolated by transfecting 4 μg of baculovirus transfer vector DNA into SF9 insect cells (2×10^8) along with 200 ng of linearized baculovirus plasmid DNA by the calcium phosphate method. See M. D. Summers and G. E. Smith, A Manual of Methods for Baculovirus vectors and Insect Cell Culture Procedures, Texas Agric. Exp. Station Bull. 1555 (1987). Recombinant viruses were purified by three rounds of plaque purification and high titer (10^7 -10^8 pfu/ml) stocks of virus were prepared. For large scale production, SF9 insect cells were infected in 10 liter fermentors (0.5×10^6 /ml) with the recombinant baculovirus stock such that the multiplicity of infection was 0.1. After 72 hours the cells were centrifuged and the cell pellet homogenized in Tris/Sucrose (50 mM: 25%, pH 8.0) containing 1% 3-[(3-cholamidopropyl)dimethylammonio]-1-propanesulfonate (CHAPS). The homogenate was centrifuged at 10,000×G for 30 minutes, and the resultant supernatant was stored at -80° C. before being assayed for COX activity. […]
(§4) b. Assay for COX-1 and COX-2 activity
(§5) COX activity was assayed as PGE2 formed/μg protein/time using an ELISA to detect the prostaglandin released. CHAPS-solubilized insect cell membranes containing the appropriate COX enzyme were incubated in a potassium phosphate buffer (50 mM, pH 8.0) containing epinephrine, phenol, and heme with the addition of arachidonic acid (10 μM). Compounds were pre-incubated with the enzyme for 10-20 minutes prior to the addition of arachidonic acid. Any reaction between the arachidonic acid and the enzyme was stopped after ten minutes at 37° C./room temperature by transferring 40 μl of reaction mix into 160 μl ELISA buffer and 25 μM indomethacin. The PGE2 formed was measured by standard ELISA technology (Cayman Chemical).

A further assay has as its system COX-2. The assay can be described thus: COX-2 activity in vitro (PGE2 formed, ELISA). The assay is classed as biochemical, human or murine. The conditions noted are these: recombinant enzyme, arachidonic acid 10 μM, pH 8.0; read-out: COX II ID50. The method, then: as §1, §2, §3, §4, §5
A general note: In an ELISA, binding on a coated surface is turned into a signal by an enzyme label.

For the compound `COC(=O)CCc1nc(-c2ccc(S(C)(=O)=O)cc2)c(-c2ccc(F)cc2)o1` [Example 15, Methyl 3-[5-(4-fluorophenyl)-4-[4-(methylsulfonyl)phenyl]]-2-oxazolepropanoate], the IC50 is greater than 30 µM in the assay with COX-1 and 0.2 µM in the assay with COX-2.
Taken in the same sequence, the figures for `NS(=O)(=O)c1ccc(-c2oc(CO)nc2-c2ccccc2)cc1` [Example 75, 4-[2-hydroxymethyl-4-phenyl-5-oxazolyl]benzenesulfonamide] were greater than 100 µM and less than 0.1 µM.
On to `NS(=O)(=O)c1ccc(-c2nc(CC(=O)O)oc2-c2ccc(F)c(F)c2)cc1` [Example 41], for which the IC50 was greater than 100 µM with COX-1 and 60.7 µM with COX-2.
Take `COCc1nc(-c2ccccc2)c(-c2ccc(S(N)(=O)=O)cc2)o1` [Example 73, 4-[2-methoxymethyl-4-phenyl-oxazolyl]benzenesulfonamide]: the IC50 in the assay with COX-1 is 47.5 µM; with COX-2, less than 0.1 µM.
On to “4-[2-methylsulfinyl)-4-phenyl-5-oxazolyl]benzenesulfonamide [Example 52]”, for which the IC50 in the assay on COX-1 is 35 µM.
Turning to `NS(=O)(=O)c1ccc(-c2oc(CC(=O)O)nc2-c2ccc(Cl)cc2)cc1` [Example 36, [5-(4-aminosulfonylphenyl)-4-(4-chlorophenyl)]-2-oxazoleacetic acid], the IC50 with COX-1 was determined as 24.7 µM; in the assay with COX-2, 1.4 µM.
As for `CS(=O)(=O)c1ccc(-c2oc(CCC3CCCCC3)nc2-c2ccc(F)cc2)cc1` [Example 32, 2-(2-cyclohexylethyl)-4-(4-fluorophenyl)-5-[4-(methylsulfonyl)phenyl]oxazole], the IC50 in the assay with COX-1 was 15.9 µM; in the assay with COX-2, less than 0.1 µM.
Consider `NC(=O)c1nc(-c2ccccc2)c(-c2ccc(S(N)(=O)=O)cc2)o1` [Example 72, 5-(4-aminosulfonylphenyl)-4-phenyl-oxazole-2-carboxamide], for which the IC50 in the assay on COX-1 was greater than 100 µM; with COX-2 it was 2.2 µM.
The corresponding values for `NS(=O)(=O)c1ccc(-c2nc(C(F)(F)F)oc2-c2ccc(F)c(F)c2)cc1` [Example 42, 4-[5-(3.4-difluorophenyl)-2-trifluoromethyl-4-oxazolyl]benzenesulfonamide] are 11.4 µM and less than 0.1 µM.
Turning to `COc1c(F)cc(-c2oc(C(F)(F)F)nc2-c2ccc(S(N)(=O)=O)cc2)cc1Br` [Example 71, 4-[5-(3-bromo-4-methoxy-5-fluorophenyl)-2-trifluoromethyl-4-oxazolyl]benzenesulfonamide], the IC50 was determined as 51 µM with COX-1 and 0.1 µM in the assay on COX-2.
Taken in the same sequence, the figures for `NS(=O)(=O)c1ccc(-c2oc(Oc3cccc(Cl)c3)nc2-c2ccccc2)cc1` [Example 47] were 1 µM and less than 0.1 µM.
`Cc1ccc(-c2nc(C(F)(F)F)oc2-c2ccc(S(C)(=O)=O)cc2)cc1` [Example 68, 4-(4-methylphenyl)-5-(4-methylsulfonylphenyl)-2-trifluoromethyl-oxazole]: the IC50 was 2 µM in the assay with COX-1 and less than 0.1 µM in the assay with COX-2.
With `NS(=O)(=O)c1ccc(-c2nc(CC(=O)O)oc2-c2ccc(Cl)c(Cl)c2)cc1` [Example 40, [4-(4-aminosulfonylphenyl)-5-(3.4-dichlorophenyl)]-2-oxazoleacetic acid], the IC50 in the assay with COX-1 is 26 µM; in the assay on COX-2, less than 0.1 µM.
Taken in the same sequence, the figures for `NS(=O)(=O)c1ccc(-c2oc(OCC(F)(F)F)nc2-c2ccccc2)cc1` [Example 49] were 4.1 µM and less than 0.1 µM.
The corresponding values for `CCOC(=O)C(Cc1ccccc1)c1nc(-c2ccc(F)cc2)c(-c2ccc(S(C)(=O)=O)cc2)o1` (stereo not drawn) [Example 33] are 3.1 µM and 0.05 µM.
In the case of `NS(=O)(=O)c1ccc(-c2oc(CC(=O)O)nc2-c2ccccc2)cc1` [Example 38, [5-(4-aminosulfonylphenyl)-4-phenyl]-2-oxazoleaceticacid], the IC50 is 72 µM in the assay with COX-1 and less than 0.1 µM with COX-2.
For `CCOC(=O)c1cccc(Oc2nc(-c3ccccc3)c(-c3ccc(S(N)(=O)=O)cc3)o2)c1` [Example 57, ethyl 3-[[5-(4-aminosulfonylphenyl)-4-phenyl-2-oxazolyl]oxy]benzoate], the values for the IC50 with COX-1 and in the assay with COX-2 were 3.2 µM and less than 0.1 µM, respectively.
`NS(=O)(=O)c1ccc(-c2ocnc2-c2ccccc2)cc1` [Example 44, 4-[4-phenyl-5-oxazolyl]benzenesulfonamide]: the values for the IC50 in the assay with COX-1 and in the assay on COX-2 were greater than 100 µM and 79 µM, respectively.
The corresponding values for `COc1ccc(-c2oc(C)nc2-c2ccc(S(N)(=O)=O)cc2)cc1F` [Example 69] are 79 µM and 0.5 µM.
For `COc1ccc(-c2oc(CC(=O)O)nc2-c2ccc(S(N)(=O)=O)cc2)cc1F` [Example 66, [4-(4-aminosulfonylphenyl)-5-(3-fluoro-4-methoxyphenyl)]-2-oxazoleacetic acid], the IC50 in the assay on COX-1 is 21 µM; in the assay on COX-2 it was 13 µM.
Take `CCOC(=O)Cc1nc(-c2ccc(S(N)(=O)=O)cc2)c(-c2ccc(OC)c(F)c2)o1` [Example 34, ethyl [4-(4-aminosulfonylphenyl)-5-(3-fluoro-4-methoxyphenyl)]-2-oxazoleacetate]: the IC50 in the assay on COX-1 was 0.2 µM; in the assay with COX-2, less than 0.1 µM.
Take `Cc1nc(-c2ccc(S(C)(=O)=O)cc2)c(-c2ccc(F)cc2)o1` [Example 14, 5-(4-Fluorophenyl)-2-methyl-4-[4-(methylsulfonyl)phenyl]oxazole]: the IC50 is greater than 30 µM with COX-1 and greater than 10 µM in the assay on COX-2.
The corresponding values for `NS(=O)(=O)c1ccc(-c2oc(SCC(=O)O)nc2-c2ccccc2)cc1` [Example 48, 5-(4-aminosulfonylphenyl)-4-phenyl-2-oxazolemercaptoacetic acid] are 0.3 µM and 2.1 µM.
As to `NS(=O)(=O)c1ccc(-c2nc(C(F)(F)F)oc2-c2ccc(Cl)cc2)cc1` [Example 59, 4-[5-(4-chlorophenyl)-2-trifluoromethyl-4-oxazolyl]benzenesulfonamide], the results for the IC50 with COX-1 and in the assay with COX-2 were 0.4 µM and less than 0.1 µM, respectively.
Taken in the same sequence, the figures for `CSc1nc(-c2ccccc2)c(-c2ccc(S(N)(=O)=O)cc2)o1` [Example 50, 4-[2-Methylthio-4-phenyl-5-oxazolyl]benzenesulfonamide] were 7.4 µM and less than 0.1 µM.
As to “4-[2-(methylsulfonyl)-4-phenyl-5-oxazolyl]benzenesulfonamide [Example 53]”, the IC50 in the assay on COX-2 is 0.5 µM.
Take `NS(=O)(=O)c1ccc(-c2nc(C(Br)C(=O)O)oc2-c2ccc(Cl)cc2)cc1` (stereo not drawn) [Example 67]: the values for the IC50 in the assay on COX-1 and in the assay on COX-2 were 33 µM and 0.8 µM, respectively.
With `CS(=O)(=O)c1ccc(-c2oc(-c3ccccc3)nc2C2CCCCC2)cc1` [Example 25, 4-(cyclohexyl)-5-[4-(methylsulfonyl)phenyl]-2-phenyloxazole], the IC50 was greater than 10 µM in the assay on COX-1 and 0.5 µM with COX-2.
The corresponding values for `NS(=O)(=O)c1ccc(-c2oc(Oc3c(F)c(F)c(F)c(F)c3F)nc2-c2ccccc2)cc1` [Example 54, 4-[2-(2,3,4,5,6-pentafluorophenoxy)-4-phenyl-5-oxazolyl]benzenesulfonamide] are 3 µM and less than 0.1 µM.
Take `NS(=O)(=O)c1ccc(-c2oc(Cl)nc2-c2ccccc2)cc1` [Example 45, 4-[2-chloro-4-phenyl-5-oxazolyl]benzenesulfonamide]: the values for the IC50 with COX-1 and with COX-2 were 6.5 µM and less than 0.1 µM, respectively.
For `Cc1nc(-c2ccccc2)c(-c2ccc(S(N)(=O)=O)cc2)o1` [Example 51, 4-[2-methyl-4-phenyl-5-oxazolyl]benzenesulfonamide], the IC50 is 14 µM in the assay with COX-1 and less than 0.1 µM in the assay with COX-2.
The corresponding values for `NS(=O)(=O)c1ccc(-c2oc(C(F)(F)F)nc2-c2ccccc2)cc1` [Example 64, 4-[4-phenyl-2-trifluoromethyl-5-oxazolyl]benzenesulfonamide] are 1.1 µM and less than 0.1 µM.
Consider `CN(C)c1nc(-c2ccccc2)c(-c2ccc(S(N)(=O)=O)cc2)o1` [Example 58, 4-[2-(N,N-dimethylamino)-4-phenyl-5-oxazolyl]benzenesulfonamide], for which the IC50 was 31 µM in the assay on COX-1 and less than 0.1 µM with COX-2.
With `CCOC(=O)c1ccccc1Oc1nc(-c2ccccc2)c(-c2ccc(S(N)(=O)=O)cc2)o1` [Example 56, ethyl 2-[[5-(4-aminosulfonylphenyl)-4-phenyl-2-oxazolyl]oxy]benzoate], the IC50 with COX-1 is 4.5 µM; with COX-2, less than 0.1 µM.
